The source made the active and inactive calls. The rule behind the calls is not given here.
System: not listed separately
Assay: toxicity to human HeLa cells – cell-based, 48 h, plate reader, cherry-picks, set 2, cytotoxicity control, dose response (AID 504944)
Conditions: HeLa cytotoxicity, plate reader, 48 h; at 13.5 µM (top of the series)

Row | SMILES | activity change, negative = toxicity
1 | COc1ccc(C2=C(C=O)Cc3ccccc3O2)cc1 | 0.173% (inactive)

Same assay, conditions: HeLa cytotoxicity, plate reader, 48 h; at 38 µM (top of the series)

Row | SMILES | activity change, negative = toxicity
2 | O=C(NC1CCCC1)c1cc(Cl)ccc1[N+](=O)[O-] | -2.55% (inactive)
3 | O=[N+]([O-])c1ccc(N2CCCCC2)nc1 | -0.44% (inactive)
4 | Cc1cc(NC(=O)c2c(F)c(F)c(F)c(F)c2F)no1 | -10.1% (inactive)
5 | Cc1cc(NC(=O)c2cc([N+](=O)[O-])cc([N+](=O)[O-])c2C)no1 | -10.2% (inactive)
6 | N#CC(c1ccc(Cl)cc1)c1ccc(Cl)nn1 (centres undefined) | -11% (inactive)
7 | CCOC(=O)CCCn1ncn2c(cc3occc32)c1=O | -0.83% (inactive)
8 | CSc1nnc(-c2ccc([N+](=O)[O-])cc2)o1 | -10.7% (inactive)
9 | CCC(C)NS(=O)(=O)c1ccc(OC)c(Cl)c1Cl (centres undefined) | -10.1% (inactive)
10 | COC(=O)c1ccc(OC(=O)c2cccs2)cc1 | -10.9% (inactive)
11 | O=CN(c1ccccc1)c1ccc2ccccc2c1 | -5.5% (inactive)
12 | O=C(NC1CCCCCCC1)c1cccc(Cl)c1 | -22.5% (inactive)
13 | CCOC1=CC(=O)OC(c2ccccc2)C1 (centres undefined) | -12.2% (inactive)
14 | Cc1cc(C)nc(N(C#N)Cc2ccccc2)n1 | 2.63% (inactive)
15 | Cc1cc(NC(=O)Nc2ccccc2[N+](=O)[O-])no1 | -12.9% (inactive)
16 | N#CC1C(C#N)C2CCC1C1C2N1c1ccccc1 (centres undefined) | -9.52% (inactive)
17 | CC(C)(C)NC(=O)c1cc(Cl)ccc1[N+](=O)[O-] | -2.21% (inactive)
18 | O=C1C=C(c2cccc(Cl)c2)C[C@@H](c2ccc(F)cc2)C1 | -19.4% (inactive)
19 | COC(=O)c1cc(-c2ccc(Br)cc2)on1 | -9.19% (inactive)
20 | CCOc1ccc(CNC2CCCc3ccccc32)cc1 (centres undefined) | -11.3% (inactive)
21 | COC(=O)c1cc(-c2ccc(OC)cc2)on1 | 4.16% (inactive)
22 | O=C1C=C(c2cc(F)ccc2F)C[C@@H](c2ccc(F)cc2)C1 | -9.01% (inactive)
23 | O=CNC1(c2ccccc2)CCCCC1 | -10.5% (inactive)

Row | SMILES | activity change, negative = toxicity
24 | CC(C)N=C(NC#N)SCc1ccccc1F | 0.214% (inactive)
25 | C#CCSc1ncc(-c2ccccc2)cn1 | -4.45% (inactive)
26 | Cn1cccc1C(C#N)c1ccccc1C#N (centres undefined) | -10.8% (inactive)
27 | OC(c1cccc(Cl)c1)c1nccc2ccccc12 (centres undefined) | -10.8% (inactive)
28 | N#CC(c1ccc(Cl)nn1)c1ccccc1Cl (centres undefined) | -3.51% (inactive)
29 | COc1ccc(/C=C/C(=O)c2ccoc2)cc1 | -17.6% (inactive)
30 | N#CC(c1ccc(Cl)cc1)c1ncc(C(F)(F)F)cc1Cl (centres undefined) | -15% (inactive)
31 | Cc1cccc(C(C#N)c2ccc(Cl)nn2)c1 (centres undefined) | -0.066% (inactive)
32 | O=C1N[C@@H](Cc2ccccc2)[C@@H](c2ccco2)O1 | -3.87% (inactive)
33 | N#CC(c1cccc(Cl)c1)c1ncc(C(F)(F)F)cc1Cl (centres undefined) | -12.5% (inactive)
34 | COc1ccc(CNCc2cccc(Cl)c2)cc1 | 3.92% (inactive)
35 | CSC1=N/C(=C\C=C\c2cccs2)C(=O)S1 | -8.63% (inactive)
36 | N#CC(c1ccccc1)c1cccc(Cl)n1 (centres undefined) | 1.47% (inactive)
37 | CC(C)CCNC(=O)c1cccc(Cl)c1 | -10.7% (inactive)
38 | Cc1ccc2scc(CN3CCCC3)c2c1 | -3.48% (inactive)
39 | Clc1cccc(CNCCCSc2ncccn2)c1 | -1.31% (inactive)
40 | N#CCn1c(C2CCCCC2)nc2ccccc2c1=O | 0.099% (inactive)
41 | C=CCOC(=O)c1ccc(-n2cnc(C)n2)nc1 | -2.17% (inactive)
42 | N#CC(Sc1ccccn1)c1ccc(Cl)cc1 (centres undefined) | -11% (inactive)
43 | Cn1cccc1C(=O)OCc1cc(-c2ccco2)on1 | 0.43% (inactive)
44 | Nc1ccc(OCc2ccccc2)cc1[N+](=O)[O-] | -5.72% (inactive)
45 | COc1ccc(N=C(C)C2=C(O)CSC2=O)cc1 | 5.59% (inactive)

Row | SMILES | activity change, negative = toxicity
46 | Cc1cc(C)nc(N(C#N)Cc2cccc([N+](=O)[O-])c2)n1 | -8.51% (inactive)
47 | CCOC(=O)c1ccc(-c2ccc(C=O)o2)cc1 | 0.584% (inactive)
48 | Cn1cccc1C(C#N)c1cccc(F)c1C#N (centres undefined) | -11.4% (inactive)
49 | CCOC(=O)N1CCN(c2ccc(Cl)cc2)CC1 | 5.84% (inactive)
50 | Cc1cccc(NC(=O)Nc2cc(C)on2)c1 | -3.2% (inactive)
51 | O=C1C2C(C(=O)N1Cc1ccco1)C1C=CC2C12CC2 (centres undefined) | -4.39% (inactive)
52 | O=C(NC1CCS(=O)(=O)C1)c1cccc(Br)c1 (centres undefined) | -1.62% (inactive)
53 | Cc1ccc(C)c(S(=O)(=O)NC2CCSC2=O)c1 (centres undefined) | -5.62% (inactive)
54 | CCOC(=O)CC(C#N)c1cn(C)c2ccccc12 (centres undefined) | -3.91% (inactive)
55 | Cc1ccc(C(C#N)c2ccc(Cl)nn2)cc1 (centres undefined) | -10.6% (inactive)
56 | N#CC(c1ccc(Cl)nn1)c1c(F)cccc1Cl (centres undefined) | -4.99% (inactive)
57 | Clc1ccc2scc(CN3CCCCC3)c2c1 | -2.59% (inactive)
58 | N#CC(c1ccc(Cl)cc1)c1cccc(Cl)n1 (centres undefined) | -6.14% (inactive)
59 | CCCNS(=O)(=O)c1ccc(OC)c(Cl)c1Cl | -2.35% (inactive)
60 | CCOC(=O)c1ccc(N2Cc3ccccc3C2=N)cc1 | -10.6% (inactive)
61 | CCNC(=O)COc1ccc2ccccc2c1 | -6.43% (inactive)
62 | COc1ccc(N2CCN(C(=O)c3ccc(Br)o3)CC2)cc1 | -5.84% (inactive)
63 | N#CN(Cc1ccccc1)Cc1ccccc1 | 2.47% (inactive)
64 | O=[N+]([O-])c1ccc(-c2cccnc2)cc1 | -9.26% (inactive)
65 | COC(=O)c1ccc(OC(=O)c2ccco2)cc1 | -11.8% (inactive)
66 | O=C(NC1CCCC1)c1cccc(Cl)c1 | 2.48% (inactive)
67 | COC(=O)c1ccc(NC(=S)N2CCCC2)cc1 | 0.525% (inactive)

Row | SMILES | activity change, negative = toxicity
68 | Clc1ccc2scc(CN3CCCC3)c2c1 | -10.3% (inactive)
69 | COc1ccc(C(C#N)c2ccc(Cl)nn2)cc1 (centres undefined) | 8.42% (inactive)
70 | O=[N+]([O-])c1ccc(N2CCCC2)nc1 | -3.24% (inactive)
71 | CCOC(=O)c1cc2c(s1)-c1c(C)cccc1OC2 | -10.8% (inactive)
72 | O=C1C2C3C=CC(C4CC34)C2C(=O)N1Cc1ccco1 (centres undefined) | -2.48% (inactive)
73 | Cc1ccc(S(=O)(=O)NCCC(C)C)cc1[N+](=O)[O-] | -2.87% (inactive)
74 | CCOc1ccc(-n2cccc2C=O)cc1 | -8.05% (inactive)
75 | O=C(NCC1CC1)c1cc([N+](=O)[O-])cc([N+](=O)[O-])c1 | 5.69% (inactive)
76 | COc1ccccc1C(C#N)c1cccc(Cl)n1 (centres undefined) | -0.092% (inactive)
77 | O=S1(=O)CCOC[C@H](c2ccccc2)N1Cc1cccc(Cl)c1 | -9.16% (inactive)
78 | Cc1cc(S(=O)(=O)NCC2CC2)c(Cl)cc1Cl | -4.01% (inactive)
79 | COc1ccc(/C(C#N)=C/c2cccnc2)cc1 | -8.3% (inactive)
80 | CCCCCC1CC(COc2ccccc2)OC1=O (centres undefined) | -3.8% (inactive)
81 | N#CC(c1ccc(Cl)nn1)c1ccc(Cl)cc1Cl (centres undefined) | -7.39% (inactive)
82 | N#Cc1cc(-c2ccccc2)cnc1Cl | -4.08% (inactive)
83 | O=C(c1cccc([N+](=O)[O-])c1)N1CC2C3C=CC(C3)C2C1 (centres undefined) | -2.29% (inactive)
84 | O=[N+]([O-])c1ccc(N2CCCCC2)cc1 | -9.13% (inactive)
85 | Cc1ccc(S(=O)c2ccc(C)cc2)cc1 | -9.53% (inactive)
86 | CCOC(=O)c1ccc(-c2ccc(CO)o2)cc1 | -14.8% (inactive)

System: HeLa cytotoxicity, plate reader, 48 h
Assay: as above
Conditions: not given

Row | SMILES | AC50
87 | N#C/C(=C/c1ccco1)c1nc2ccccc2s1 | 24.4 µM
88 | O=CC1=C(c2ccccc2)Oc2ccccc2O1 | 20.6 µM
89 | CCOC(=O)/C=C(\C)Sc1cc(=O)oc2ccccc12 | 23.9 µM
90 | O=C(Nc1ncc([N+](=O)[O-])s1)c1cccc([N+](=O)[O-])c1 | 14.3 µM
91 | Cc1cc(NC(=O)c2cc([N+](=O)[O-])ccc2Cl)no1 | 29.1 µM
92 | CO/N=C/c1cn(-c2ccc(Cl)cc2)nn1 | 22.3 µM
93 | Cc1ccc2nc(-c3ccc4c(c3)OCCO4)cn2c1 | 22.3 µM
94 | COC(=O)c1ccc(/C=C(\C#N)c2ccccn2)cc1 | 29 µM

From PubChem BioAssay AID504944 (Broad Institute, 2011)
